Experiments:
[1] = system: ERK, AKT, mTOR, CREB, ACC and eNOS; assay: Western blot of signal transduction pathways in BCECs; assay type: cell-based, bovine
Description: (§1) Cells were allowed to reach ˜80% confluency in 12-well plates. […] At various time points, plates were taken out of the incubator and kept on ice. Cell monolayers were first washed once with ice-cold PBS before lysis with 250 μl of Pierce RIPA buffer (ThermoFisher Scientific, Rockford, IL) or use 50 mM Tris-HCl (pH 7.6), 150 mM NaCl, 10% Glycerol, 1% NP-40 containing protease/Phosphatase inhibitor cocktail (100×) (Cell signaling, #5872). Lysates were collected and mixed with 4×Bolt LDS Sample Buffer (Novex, Carlsbad, CA) in the presence of Halt protease inhibitors and phosphatase inhibitor cocktail (ThermoFisher scientific, #NP0007). The samples were subjected to SDS-PAGE (Bolt 4-12% Bis-Tris Plus, Invitrogen) using Bolt MES SDS running buffer or NuPAGE 3-8% Tris-Acetate gel using Tris-Acetate SDS running buffer (Novex). HUVECs (passage 6-8) were plated in EBM-2 basal medium (Lonza) with 0.2% FBS. […] Equal amounts of protein lysates were analyzed by SDS-PAGE and blotted with the indicated antibodies. Proteins were transferred using Tris-Glycine buffer with 20% Methanol (Proteonomics grade) (Apex BioResearch Products). Membranes were first incubated with 5% milk in TBST, pH 7.6 (TEKnova, Hollister, CA), followed by blotting with primary and secondary antibodies. ECL anti-rabbit IgG, horseradish peroxidase linked whole antibody from donkey or sheep anti-mouse were obtained from GE Healthcare (UK limited). SuperSignal West Dura Extended Duration substrate was from ThermoFisher Scientific. In some cases, the same PVDF membranes were stripped by 8-min incubation in the Restore Plus Western Blot Stripping Buffer (ThermoFisher Scientific) to show total specific protein expression, followed by second stripping for β-actin expression.

ERK and AKT = assay: Western blot of ERK and AKT activation in HUVEC and hDMVECs; assay type: cell-based, human; details: 40 uM; HUVEC and hDMVECs
Description: as §1, with “80%” for “˜80%”, “ECL anti-rabbit IgG, horseradish peroxidase linked whole antibody from donkey or sheep anti-mouse were obtained from GE Healthcare (UK limited). SuperSignal West Dura Extended Duration substrate was from ThermoFisher Scientific. In some cases, the same PVDF membranes were stripped by 8-min incubation in the Restore Plus Western Blot Stripping Buffer (ThermoFisher Scientific) to show total specific protein expression, followed by second stripping for β-actin expression.” left out

Bip, CHOP and ATF-6 = assay: Western blot of UPR responsive proteins in BCECs; assay type: cell-based, bovine
Description: as §1

ischemic hindlimb = assay: Hindlimb ischemia model and blood flow; assay type: in vivo, mouse; details: for blood perfusion ratio, of sham-treatment limbs: 3 weeks; for blood vessel density compared with H2O-treated control (CD31): 3 weeks post-ligation; for blood flow recovery (perfusion ratio): one week after surgery, 20% ManN oral or 1 mg/ml Kif ip every other day
Description: C57BL/6 male mice (6-8 weeks old) were subjected to unilateral hindlimb surgery under anesthesia with ketamine/xylazine cocktail. Briefly, the left femoral artery was separated from the vein and nerve, ligated proximally, and excised. The right hindlimb served as control. Blood flow was measured by using a laser Doppler perfusion imager (PeriScan PSI; Perimed). Ischemic and nonischemic limb perfusion was measured before and after surgery and 1, 2 and 3 weeks later. After surgery, mice were randomly allocated to different groups (8 mice for each group). 200 μl of 20% ManN was orally administrated every other day from 3rd day after surgery. 200 μl of 1 mg/ml Kif was administrated through ip injection every other day. H2O was used as a vehicle control. The final blood flow values were expressed as the ratio of ischemic to nonischemic hindlimb perfusion from the same animal. Quantification of blood vessel area was carried out as described.

retinal vasculature = assay: Retinal neovascularization after intravitreal injection; assay type: in vivo, mouse; details: intravitreal 500 ng ManN or Kif, 200 ng bFGF; seven days
Description: Assessment of retinal angiogenesis following intravitreal administration was done. Briefly, 6-8 weeks old C57BL/6 male mice were randomly allocated to different groups and anesthetized with ketamine/Xylazine cocktail. The indicated amounts of ManN, Kif or bFGF (R&D systems, AF-233-NA) in 1 μl of PBS and PBS vehicle control were injected intravitreally with a 33-gauge Hamilton syringe. Seven days after injection, animals were euthanized. Eyes were then enucleated and fixed in 4% paraformaldehyde (PFA) for 30 mins. Retinas were separated and stained with anti-CD31 immunofluorescence (IF) to evidence the vasculature. Evaluations were performed by an investigator blinded to the treatment. For CD31 IF, rat anti-mouse antibody (BD Biosciences, CAT #550274) was diluted 1:100 and incubated overnight at 4° C. After 4-hour incubation with the Alexa Fluor-488-conjugated anti-rat antibody (Life Technologies, A11006), whole mounts were imaged via the 488 nm channel using A1R Confocal STORM super-resolution system (Nikon). Quantification of vascular density in choroids and retina was carried out by Image J. Each experiment was repeated three times with similar results, and each treatment group consists of 5 individual samples.

[2] = molecular target: T1, α-mannosidase from Jack Bean (Canavalia ensiformis, UniProt C0HJB3); assay: α-mannosidase activity assay; assay type: biochemical
T1 construct: purchased M7257
T1 sequence (C0HJB3 whole entry): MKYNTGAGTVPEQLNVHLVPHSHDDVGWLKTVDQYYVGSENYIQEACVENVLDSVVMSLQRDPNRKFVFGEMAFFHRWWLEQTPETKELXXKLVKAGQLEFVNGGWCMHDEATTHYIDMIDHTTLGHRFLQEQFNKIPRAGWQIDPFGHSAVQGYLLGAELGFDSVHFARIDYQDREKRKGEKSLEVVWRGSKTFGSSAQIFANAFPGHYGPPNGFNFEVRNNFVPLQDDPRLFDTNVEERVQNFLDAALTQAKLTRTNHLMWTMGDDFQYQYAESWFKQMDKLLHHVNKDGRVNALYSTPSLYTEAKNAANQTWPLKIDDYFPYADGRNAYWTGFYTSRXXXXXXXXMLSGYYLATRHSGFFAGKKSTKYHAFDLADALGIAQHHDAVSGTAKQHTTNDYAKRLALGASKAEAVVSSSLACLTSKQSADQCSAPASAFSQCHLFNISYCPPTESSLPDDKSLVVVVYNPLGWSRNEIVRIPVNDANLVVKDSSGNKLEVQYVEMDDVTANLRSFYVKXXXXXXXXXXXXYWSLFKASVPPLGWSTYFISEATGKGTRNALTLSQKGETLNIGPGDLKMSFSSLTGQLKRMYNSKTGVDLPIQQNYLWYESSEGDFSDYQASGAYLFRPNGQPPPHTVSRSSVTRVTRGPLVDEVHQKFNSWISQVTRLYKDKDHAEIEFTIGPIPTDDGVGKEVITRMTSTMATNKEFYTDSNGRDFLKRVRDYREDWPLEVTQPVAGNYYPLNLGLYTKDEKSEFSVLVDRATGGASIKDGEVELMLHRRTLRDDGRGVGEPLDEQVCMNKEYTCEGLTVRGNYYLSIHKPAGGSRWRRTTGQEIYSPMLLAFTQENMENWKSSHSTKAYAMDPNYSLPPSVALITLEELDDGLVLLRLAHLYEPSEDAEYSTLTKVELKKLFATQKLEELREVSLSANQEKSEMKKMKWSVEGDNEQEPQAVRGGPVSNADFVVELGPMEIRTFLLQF
Description: a-mannosidase activity was measured using substrate p-nitrophenyl α-mannopyranoside (1 mM). Enzyme from Jack Bean ([MUT]) (final concentration of 0.077 U) was incubated at 37° C. in a final volume of 50 μl of 50 mM potassium phosphate buffer, pH 7.5. α-glucosidase was assayed with substrate p-nitrophenyl α-glucoside (7 mM). […] The incubation was stopped by addition of an equal volume of acid-based stop solution (R&D systems, 895032).

[3] = in vivo

O=C1N[C@@H]2[C@@H](O)[C@@H](O)[C@H](O)[C@@H](CO)N2C1=O [Kif, Kifunensine, reference compound]
activation of ERK and AKT ([1]; 40 uM, BCECs): significantly activate | activation of ERK and AKT (ERK and AKT): significantly activate | Bip expression with glycosylation inhibitors (Bip, CHOP and ATF-6; media without growth factors for 24 hours): dose-dependent induction of Bip expression | blood perfusion ratio, of sham-treatment limbs (ischemic hindlimb): ~50% | blood vessel density compared with H2O-treated control (CD31) (ischemic hindlimb): 1.8 times | blood flow recovery (perfusion ratio) (ischemic hindlimb): ~47% | increase in density of retinal vessels compared to PBS group (retinal vasculature): ~20%

N[C@H](C=O)[C@@H](O)[C@H](O)[C@H](O)CO [ManN, 2-Amino-2-deoxy-D-mannose]
activation of ERK, AKT and CREB with both ManN and VEGF compared to ManN or VEGF alone [1]: enhancement in activation | activation of ERK, AKT, mTOR and CREB ([1]; 40 uM): activated | activation of eNOS and ACC ([1]; 40 uM): significantly activated | time to activation of eNOS and ACC ([1]; 40 uM): 10 to 30 min | time to stimulation of ERK, AKT and CREB after adding ManN ([1]; 40 uM): 10 to 30 min | concentration showing inhibitory activity [2]: 400 µM | synergy between ManN and VEGF in promoting Bip or CHOP expression (Bip, CHOP and ATF-6): No synergy | time at which accumulation of Bip is evident (Bip, CHOP and ATF-6): 24 h | time of CHOP induction (Bip, CHOP and ATF-6; dose-dependent): about 6 hours | Bip expression (Bip, CHOP and ATF-6; growing cells deprived of growth factor supply): significantly turn on Bip expression in a concentration-dependent manner | blood perfusion ratio, of sham-treatment limbs (ischemic hindlimb): ~50% | blood vessel density compared with H2O-treated control (CD31) (ischemic hindlimb): 2.3 times | blood flow recovery (perfusion ratio) (ischemic hindlimb): about 40% | increase in density of retinal vessels compared to PBS group (retinal vasculature): ~30% | plasma free ManN peak level ([3]; male, C57BL/6, mouse, po): ~100 nmol/ml plasma | time of plasma peak level ([3]; male, C57BL/6, mouse, po): 1 h | free ManN in ischemic leg muscle ([3]; male, C57BL/6, mouse, po, 2 h): 0.17+/−0.18 nmol/mg protein | plasma free ManN detectable relative to peak ([3]; mouse): about half of that amount

Reference: patent US20230390315A1, “COMPOSITIONS AND METHODS FOR TREATING ISCHEMIC CONDITIONS” (The Regents of the University of California, priority 2020, published 2023)
